Results reported in ChEMBL document CHEMBL1158051, “Russujaponols A-F, illudoid sesquiterpenes from the fruiting body of Russula japonica” (2006).

Tests used:
HT-1080 [1] = test: Inhibition of invasion of human HT1080 cells into Matrigel at 0.17 uM; format: functional
HT-1080 [2] = test: Inhibition of invasion of human HT1080 cells into Matrigel at 3.73 uM; format: functional

Row | SMILES | inhibition at 0.17 µM (HT-1080 [1]) [%] | inhibition at 3.73 µM (HT-1080 [2]) [%]
1 | COc1cccc2c1C(=O)c1c(O)c3c(c(O)c1C2=O)C[C@@](O)(C(=O)CO)C[C@@H]3O[C@H]1C[C@H](N)[C@H](O)[C@H](C)O1 [DOXORUBICIN] | 52 | –
2 | C[C@H]1C(=O)[C@@H]2C[C@](C)(CO)C[C@]2(O)[C@@]2(C)CC[C@@]12O [RUSSUJAPONOL A] | – | 63
